Measurements published in patent US10053457B2, “Hydroxyalkyl-piperazine derivatives as CXCR3 receptor modulators” (IDORSIA PHARMACEUTICALS LTD, priority 2015, dated 2018).

Legend:
Type in all cases: cell-based
[1] = target: CXCR3 (Homo sapiens (Human), UniProt P49682); experiment: Receptor internalization assay in human whole blood (CXCR3 surface expression on CD4 positive cells, CXCL10); conditions: final CXCL10 9 nM, 30 min at 37° C., mean values
Description: Diluted compounds are then mixed with an equal volume of CXCL10 (Peprotech) diluted in PBS. Anticoagulated venous human whole blood is added to the mixture, which is then incubated in a CO2 incubator at 37° C. to allow for ligand mediated receptor internalization (final CXCL10 concentration is 9 nM). After 30 min, the blood is mixed with fluorescently labeled CXCR3 and CD4 specific antibodies (Becton Dickinson) and incubated on ice for 10 minutes. Samples are then mixed with BD FACS Lysing Solution (Becton Dickinson) in order to eliminate red blood cells. After washing the cells with PBS containing 0.5% BSA, the samples are then analyzed in a flow cytometer (FACS Canto II, Becton Dickinson). For data analysis using FACSDiva software (Becton Dickinson), the mean fluorescence corresponding to CXCR3 cell surface expression was determined on CD4 positive cells. The program GraphPad Prism or similar software is used to fit the data to a single site dose response curve and to calculate IC50 values.
(§1) In the case where IC50 values have been determined several times for the same compound, mean values are given.

[2] = target: human CXCR3A (Homo sapiens (Human), UniProt P49682); experiment: FLIPR assay (CXCL10-induced calcium signal); conditions: CHO-K1 cells expressing human CXCR3A coupled to Galpha(16); CXCL10 agonist 20 nM; mean values
Excerpt: as §1

[3] = target: hERG K channel (Homo sapiens (Human), UniProt Q12809); experiment: hERG Q-Patch assay; conditions: CHO cells expressing hERG, K+ tail current 3 min after application, mean of two or three experiments
Description: Compounds are evaluated for block of the hERG K channel using CHO cells stably expressing the hERG gene (accession number U04270, bSys, Witterswil, Switzerland) and the QPatch robotic platform (Sophion, Ballerup, Denmark) in single-cell mode at room temperature. Cells are grown in culture flasks at 37° C. in 5% CO2, in culture medium (Ham's F-12 Nutrient Mixture, Invitrogen 21765-029) supplemented with 9% (v/v) fetal calf serum, 0.9% Penicillin/Streptomycin (10,000 U/mL, Invitrogen 15140148), 100 μg/mL Hygromycin B (Invitrogen 10687010). When the cells are ˜80% confluent (every 2-3 days), they are either split for further culture or used for electrophysiology. For further culture, cells are detached with 0.25% Trypsin EDTA solution (Invitrogen 25200-056) and a fraction of the cells (10-30%) is reseeded in culture medium. For electrophysiology, on the experimental day, cells are detached with 0.25% Trypsin EDTA solution and all cells are suspended in suspension medium (293 SFM II, Invitrogen 11686-029) supplemented with 20 mM HEPES and 0.04 mg/mL Trypsin inhibitor. Cells are kept in suspension medium at 32-35° C. in the QPatch robot until use, at which time aliquots are transferred to the extracellular solution (in mM: NaCl 150; KCl 4; CaCl2 1.2; MgCl2 1; HEPES 10; pH 7.4 with NaOH) containing 0.3% v/v DMSO and applied to the test plates. K^+ currents are measured with the patch-voltage-clamp technique in the whole-cell configuration with the internal solution (in mM: KCl, 140; NaCl, 10; MgCl2, 1; HEPES, 10: EGTA, 5; pH=7.2 with KOH). Currents are low-pass filtered using the internal Bessel filter of the QPatch robot with a cut-off frequency of 2 kHz and are digitized at 10 kHz. K^+ tail currents are produced from a holding voltage of −80 mV by a 500-ms depolarization to +20 mV followed by a 500-ms repolarization to −40 mV; tail current amplitudes are measured at the end of the repolarization to −40 mV. The pulse pattern is repeated every 10 sec during the experiment, baseline K^+ current is measured after 3 min in extracellular solution, test-solution containing compound is then applied, and K^+ current in presence of compound is measured 3 minutes after application to the cells. The respective test-solution is prepared by (1) dissolving the test-compound in pure DMSO, (2) diluting this DMSO solution in extracellular solution, and (3) adding further DMSO, such that the final test-solution has a concentration of either 300 nM or 3000 nM of the test-compound and contains 0.3% v/v DMSO. Compound effects are quantified as % block by dividing the current in presence of compound by the baseline current; two or three experiments are performed for each compound and the final value represents the mean of the results of each experiment.

hERG K channel, sequence (Q12809 whole entry): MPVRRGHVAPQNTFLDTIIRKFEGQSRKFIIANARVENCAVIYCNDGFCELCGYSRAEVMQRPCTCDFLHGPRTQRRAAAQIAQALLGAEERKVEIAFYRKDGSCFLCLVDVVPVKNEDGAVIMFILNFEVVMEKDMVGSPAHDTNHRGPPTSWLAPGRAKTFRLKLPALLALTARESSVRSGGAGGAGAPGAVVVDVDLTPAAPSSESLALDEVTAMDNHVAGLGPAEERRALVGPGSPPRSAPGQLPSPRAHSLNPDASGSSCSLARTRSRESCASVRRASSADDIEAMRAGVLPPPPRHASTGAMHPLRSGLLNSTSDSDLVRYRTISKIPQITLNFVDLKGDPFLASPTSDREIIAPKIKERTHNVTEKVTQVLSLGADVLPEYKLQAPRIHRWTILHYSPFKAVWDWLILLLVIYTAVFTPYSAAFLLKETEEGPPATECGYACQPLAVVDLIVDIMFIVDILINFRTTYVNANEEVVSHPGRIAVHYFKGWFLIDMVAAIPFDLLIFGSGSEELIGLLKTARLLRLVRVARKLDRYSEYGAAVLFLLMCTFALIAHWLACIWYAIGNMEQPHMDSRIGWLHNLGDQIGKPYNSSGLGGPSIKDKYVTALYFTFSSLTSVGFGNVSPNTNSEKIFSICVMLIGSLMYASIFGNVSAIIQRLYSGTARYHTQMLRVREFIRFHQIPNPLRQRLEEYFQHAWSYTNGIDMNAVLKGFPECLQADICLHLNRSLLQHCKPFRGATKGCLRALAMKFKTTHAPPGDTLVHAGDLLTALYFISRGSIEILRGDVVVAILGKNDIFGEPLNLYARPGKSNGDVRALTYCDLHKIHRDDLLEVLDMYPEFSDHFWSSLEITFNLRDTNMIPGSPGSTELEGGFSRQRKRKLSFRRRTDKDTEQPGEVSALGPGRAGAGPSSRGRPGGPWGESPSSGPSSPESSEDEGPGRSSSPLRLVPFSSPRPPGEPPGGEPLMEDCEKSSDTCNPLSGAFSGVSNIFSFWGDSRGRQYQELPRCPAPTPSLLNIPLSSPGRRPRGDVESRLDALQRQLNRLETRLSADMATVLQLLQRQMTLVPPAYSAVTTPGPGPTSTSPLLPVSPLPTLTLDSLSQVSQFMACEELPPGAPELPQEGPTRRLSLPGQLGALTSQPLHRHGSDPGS
human CXCR3A, sequence (P49682 whole entry): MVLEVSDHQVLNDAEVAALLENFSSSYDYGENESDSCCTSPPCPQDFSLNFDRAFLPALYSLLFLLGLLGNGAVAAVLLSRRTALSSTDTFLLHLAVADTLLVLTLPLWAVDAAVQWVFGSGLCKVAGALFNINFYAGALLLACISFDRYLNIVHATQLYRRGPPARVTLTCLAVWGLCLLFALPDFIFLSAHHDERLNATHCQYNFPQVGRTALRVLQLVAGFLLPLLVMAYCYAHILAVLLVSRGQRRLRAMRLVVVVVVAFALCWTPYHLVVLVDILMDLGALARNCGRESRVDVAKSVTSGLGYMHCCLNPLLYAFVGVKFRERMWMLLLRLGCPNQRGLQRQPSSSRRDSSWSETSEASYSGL
CXCR3, sequence (P49682 whole entry): as above

Row | Compound | IC50 [1] | IC50 [2] | % block ([3]; concentration 300 nM) | % block ([3]; concentration 3000 nM)
1 | O=C(Cn1cnc(C2CC2)n1)N1CCN(c2sc(C(F)(F)F)nc2-c2cnc(C(F)(F)F)nc2)C[C@H]1CCO [Example 31, 2-(3-Cyclopropyl-[1,2,4]triazol-1-yl)-1-{(R)-2-(2-hydroxy-ethyl)-4-[2-trifluoromethyl-4-(2-trifluoromethyl-pyrimidin-5-yl)-thiazol-5-yl]-piperazin-1-yl}-ethanone] | 73.8 nM | 4.4 nM | 2% | 23%
2 | CCc1ncn(CC(=O)N2CCN(c3sc(C(F)(F)F)nc3-c3cnc(C(F)(F)F)nc3)C[C@H]2CCO)n1 [Example 32, 2-(3-Ethyl-[1,2,4]triazol-1-yl)-1-{(R)-2-(2-hydroxy-ethyl)-4-[2-trifluoromethyl-4-(2-trifluoromethyl-pyrimidin-5-yl)-thiazol-5-yl]-piperazin-1-yl}-ethanone] | 93.3 nM | 2.6 nM | 0% | 19%
3 | CCc1ncnn1CC(=O)N1CCN(c2sc(C(F)(F)F)nc2-c2cnc(C(F)(F)F)nc2)C[C@H]1CCO [Example 33, 2-(5-Ethyl-[1,2,4]triazol-1-yl)-1-{(R)-2-(2-hydroxy-ethyl)-4-[2-trifluoromethyl-4-(2-trifluoromethyl-pyrimidin-5-yl)-thiazol-5-yl]-piperazin-1-yl}-ethanone] | 652 nM | 27 nM | −5% | 6%
4 | CC(C)c1ncn(CC(=O)N2CCN(c3sc(C(F)(F)F)nc3-c3cnc(C(F)(F)F)nc3)C[C@H]2CCO)n1 [Example 34, 1-{(R)-2-(2-Hydroxy-ethyl)-4-[2-trifluoromethyl-4-(2-trifluoromethyl-pyrimidin-5-yl)-thiazol-5-yl]-piperazin-1-yl}-2-(3-isopropyl-[1,2,4]triazol-1-yl)-ethanone] | 84.8 nM | 4.5 nM | 10% | 34%
5 | COCc1ncn(CC(=O)N2CCN(c3sc(C(F)(F)F)nc3-c3cnc(C(F)(F)F)nc3)C[C@H]2CCO)n1 [Example 37, 1-{(R)-2-(2-Hydroxy-ethyl)-4-[2-trifluoromethyl-4-(2-trifluoromethyl-pyrimidin-5-yl)-thiazol-5-yl]-piperazin-1-yl}-2-(3-methoxymethyl-[1,2,4]triazol-1-yl)-ethanone] | 393 nM | 5.7 nM | 4% | 9%
6 | Cc1ccn(CC(=O)N2CCN(c3sc(C(F)(F)F)nc3-c3cnc(C(F)(F)F)nc3)C[C@H]2CO)n1 [Example 42, 1-{(S)-2-Hydroxymethyl-4-[2-trifluoromethyl-4-(2-trifluoromethyl-pyrimidin-5-yl)-thiazol-5-yl]-piperazin-1-yl}-2-(3-methyl-pyrazol-1-yl)-ethanone] | 59.7 nM | 1 nM | 2% | 15%
7 | O=C(Cn1ccc(C2CC2)n1)N1CCN(c2sc(C(F)(F)F)nc2-c2cnc(C(F)(F)F)nc2)C[C@H]1CO [Example 44, 2-(3-Cyclopropyl-pyrazol-1-yl)-1-{(S)-2-hydroxymethyl-4-[2-trifluoromethyl-4-(2-trifluoromethyl-pyrimidin-5-yl)-thiazol-5-yl]-piperazin-1-yl}-ethanone] | 76 nM | 0.38 nM | 5% | 34%

Second part, led by results:

Row | IC50 [1] | IC50 [2] | Compound | % block ([3]; concentration 300 nM) | % block ([3]; concentration 3000 nM)
8 | 102 nM | 2.9 nM | Cc1ncn(CC(=O)N2CCN(c3sc(C(F)(F)F)nc3-c3cnc(C(F)(F)F)nc3)C[C@H]2CCO)n1 [Example 35, 1-{(R)-2-(2-Hydroxy-ethyl)-4-[2-trifluoromethyl-4-(2-trifluoromethyl-pyrimidin-5-yl)-thiazol-5-yl]-piperazin-1-yl}-2-(3-methyl-[1,2,4]triazol-1-yl)-ethanone] | 11% | 25%
9 | 451 nM | 8 nM | Cc1ncnn1CC(=O)N1CCN(c2sc(C(F)(F)F)nc2-c2cnc(C(F)(F)F)nc2)C[C@H]1CCO [Example 36, 1-{(R)-2-(2-Hydroxy-ethyl)-4-[2-trifluoromethyl-4-(2-trifluoromethyl-pyrimidin-5-yl)-thiazol-5-yl]-piperazin-1-yl}-2-(5-methyl-[1,2,4]triazol-1-yl)-ethanone] | 10% | 19%
10 | 46.3 nM | 1 nM | Cc1ccn(CC(=O)N2CCN(c3sc(C(F)(F)F)nc3-c3cnc(C(F)(F)F)nc3)C[C@H]2CCO)n1 [Example 39, 1-{(R)-2-(2-Hydroxy-ethyl)-4-[2-trifluoromethyl-4-(2-trifluoromethyl-pyrimidin-5-yl)-thiazol-5-yl]-piperazin-1-yl}-2-(3-methyl-pyrazol-1-yl)-ethanone] | 1% | 32%
11 | 32.7 nM | 1.6 nM | CCc1ccn(CC(=O)N2CCN(c3sc(C(F)(F)F)nc3-c3cnc(C(F)(F)F)nc3)C[C@H]2CCO)n1 [Example 40, 2-(3-Ethyl-pyrazol-1-yl)-1-{(R)-2-(2-hydroxy-ethyl)-4-[2-trifluoromethyl-4-(2-trifluoromethyl-pyrimidin-5-yl)-thiazol-5-yl]-piperazin-1-yl}-ethanone] | 5% | 47%
12 | 30.2 nM | 0.45 nM | O=C(Cn1ccc(C2CC2)n1)N1CCN(c2sc(C(F)(F)F)nc2-c2cnc(C(F)(F)F)nc2)C[C@H]1CCO [Example 41, 2-(3-Cyclopropyl-pyrazol-1-yl)-1-{(R)-2-(2-hydroxy-ethyl)-4-[2-trifluoromethyl-4-(2-trifluoromethyl-pyrimidin-5-yl)-thiazol-5-yl]-piperazin-1-yl}-ethanone] | 12% | 60%
13 | 40.3 nM | 1.2 nM | CCc1ccn(CC(=O)N2CCN(c3sc(C(F)(F)F)nc3-c3cnc(C(F)(F)F)nc3)C[C@H]2CO)n1 [Example 43, 2-(3-Ethyl-pyrazol-1-yl)-1-{(S)-2-hydroxymethyl-4-[2-trifluoromethyl-4-(2-trifluoromethyl-pyrimidin-5-yl)-thiazol-5-yl]-piperazin-1-yl}-ethanone] | 5% | 25%
